In assay [1] the target is T1, SOS1 nucleotide exchange of KRAS (catalytic domain of SOS1, residues 564-1049; wild-type KRAS) (Homo sapiens, UniProt Q07889).
T1 construct: tagless catalytic domain of SOS1 (residues 564-1049)
T1 sequence (Q07889 564-1049): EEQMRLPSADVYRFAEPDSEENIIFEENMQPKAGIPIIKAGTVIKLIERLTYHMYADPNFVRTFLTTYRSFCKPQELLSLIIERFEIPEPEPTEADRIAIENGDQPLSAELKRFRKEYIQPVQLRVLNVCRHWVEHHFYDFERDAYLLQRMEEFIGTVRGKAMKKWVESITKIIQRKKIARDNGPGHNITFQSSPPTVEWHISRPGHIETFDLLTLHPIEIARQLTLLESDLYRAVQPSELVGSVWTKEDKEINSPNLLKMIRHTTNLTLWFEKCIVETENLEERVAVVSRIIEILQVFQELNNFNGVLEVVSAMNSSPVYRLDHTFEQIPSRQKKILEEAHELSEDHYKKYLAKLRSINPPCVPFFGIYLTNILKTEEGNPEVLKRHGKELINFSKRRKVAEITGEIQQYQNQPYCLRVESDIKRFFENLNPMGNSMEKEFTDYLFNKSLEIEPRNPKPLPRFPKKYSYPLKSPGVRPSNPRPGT
Briefly: Mode of Action Assay: Inhibition of SOS1 Nucleotide Exchange Activity (TR-FRET). Format: biochemical. The settings on record: TR-FRET signal. The protocol:
The purpose of this assay was to characterize the inhibitory activity of compounds on SOS1 nucleotide exchange of KRAS. Data was reported as IC50 values based on the TR-FRET signal.
Note—the following protocol describes a procedure for monitoring the inhibition of SOS1 nucleotide exchange activity of wild-type KRAS in response to a compound of the invention. Other KRAS mutants and RAS isoforms maybe employed.
In assay buffer containing 20 mM HEPES, pH 7.5, 150 mM NaCl, 5 mM MgCl2, 0.05% Tween-20, 0.1% BSA, 1 mM DTT, concentration series of test compounds were generated spanning 100 μM to 1.7 nM over eleven 3-fold serial dilutions in a 384-well assay plate at a volume of 20 μL. The purified tagless catalytic domain of SOS1 (residues 564-1049) was first diluted in assay buffer at a concentration of 100 nM, and then 20 μL of the SOS1 containing solution was directly dispensed into compound plates. The SOS1/compound mixture was incubated at room temperature with constant mixing on an orbital shaker for 20 minutes to allow the reaction to reach equilibrium. A KRAS mixture was prepared by diluting 66.7 nM avi-tagged KRAS (residue 1-169), 3.33 nM Streptavidin-Tb and 333 nM EDA-GTP-DY-647P1 in assay buffer. This mixture was prepared immediately before addition to the SOS1/compound mixture to prevent intrinsic nucleotide exchange. Then 5 μL of the pre-incubated SOS1/compound mixture and 7.5 μL of the KRAS mixture were added sequentially in a 384-well low volume black round bottom plate and incubated at room temperature with constant shaking for 30 minutes. Time-resolved fluorescence was measured on a PerkinElmer Envision plate reader. DMSO and 10 μM of compound (i) were used as negative and positive controls, respectively.
Three replicates were performed for each compound. Data were normalized by the following: (Positive control—Sample signal)/(Positive control—negative control)*100. The data were fit using a four-parameter logistic fit.

Assay [2] addresses T2, SOS1 catalytic domain (residues 564-1049) (Homo sapiens, UniProt Q07889).
T2 construct: SOS1 catalytic domain (residues 564-1049) immobilized on a sensor chip
T2 sequence (Q07889 564-1049): T1 sequence (Q07889 564-1049)
The experiment in a line: Binding affinity to SOS1 using Surface Plasmon Resonance (SPR). The settings on record: avi-tagged SOS1 catalytic domain immobilized on sensor chip; read-out: SOS1 SPR Equilibrium Kd. The source says:
Potency Assay: Measurement of the Binding Affinity of Compounds of the Invention to SOS! using Surface Plasmon Resonance (SPR)
The purpose of the SPR assay was to measure the direct binding of compounds to SOS1 catalytic domain (residues 564-1049) immobilized on a sensor chip. Data was reported as equilibrium dissociation constant (Kd) values.
Using a GE Biacore 8K SPR instrument, avi-tagged SOS1 catalytic domain protein was immobilized to a level of approximately 6000 response units (RU) on a streptavidin-coated SPR sensor chip in assay buffer containing 0.01 M HEPES, 0.15 M NaCl and 0.05% v/v Surfactant P20. In assay buffer containing 2% DMSO, concentration series of test compounds were generated spanning 5 μM to 4.9 nM over ten 2-fold dilutions. For each test compound, a separate 0 μM sample was generated for use during subsequent double reference subtraction. Serially for each test compound, individual dilution samples were flowed over the immobilized SOS1 protein at a flow rate of 50 μL/minute to monitor the association with SOS1. Dissociation of bound test compound from the SOS1 protein was immediately monitored by flowing assay buffer over the sensor surface and monitoring the decrease in binding signal back to the baseline level seen in the absence of compound. This was repeated for all compound dilutions in each series. The binding level response for each test compound concentration was noted immediately prior to the end of the association phase, and a secondary plot generated showing binding response level versus test compound concentration generated for each compound dilution series.

In turn, `C[C@@H](Nc1cc(C(F)(F)F)cn2nc(C3=CCNCC3)nc12)c1cc(N)cc(C(F)(F)F)c1` [Example 54, N-[(1R)-1-[3-amino-5-(trifluoromethyl)phenyl]ethyl]-2-(1,2,3,6-tetrahydropyridin-4-yl)-6-(trifluoromethyl)-[1,2,4]triazolo[1,5-a]pyridin-8-amine] showed an IC50 in assay [1] above 1 µM.

In the case of `CC(=O)N1CCN(c2cc3c(N[C@H](C)c4cc(N)cc(C(F)(F)F)c4)ncnn3c2)CC1` [Example 43, 1-[4-[4-[[(1R)-1-[3-amino-5-(trifluoromethyl)phenyl]ethyl]amino]pyrrolo[2,1-f][1,2,4]triazin-6-yl]piperazin-1-yl]ethanone], the Kd in assay [2] is above 0.4 µM. Further, the IC50 in assay [1] is above 1 µM.

In assay [1], `Cc1cn2nc(C(=O)N3CCNCC(F)(F)C3)cc2c(N[C@H](C)c2cc(N)cc(C(F)(F)F)c2)n1` [Example 77] registered an IC50 above 1 µM.

The compound `Cc1nc(N[C@H](C)c2cc(N)cc(C(F)(F)F)c2)c2cc(C3=CCNCC3)sc2n1` [Example 46, N-[(1R)-1-[3-amino-5-(trifluoromethyl)phenyl]ethyl]-2-methyl-6-(1,2,3,6-tetrahydropyridin-4-yl)thieno[2,3-d]pyrimidin-4-amine] yielded an IC50 in assay [1] above 1 µM.

For the compound `C[C@@H](Nc1nccc2nc(C(=O)N3CC4(CN(CC(F)F)C4)C3)cn12)c1cccc(C(F)F)c1F` [Example 93], in assay [2], the Kd was at most 0.4 µM. This compound also yielded an IC50 in assay [1] below 1 µM.

`C[C@@H](Nc1ncnc2cn(CC3CCOC3)cc12)c1cc(N)cc(C(F)(F)F)c1` (stereo partly drawn) [Example 32, N-[(1R)-1-[3-amino-5-(trifluoromethyl)phenyl]ethyl]-6-(tetrahydrofuran-3-ylmethyl)pyrrolo[3,4-d]pyrimidin-4-amine]: the Kd in assay [2] is at most 0.4 µM.

Consider `Cc1nc(N[C@H](C)c2cc(N)cc(C(F)(F)F)c2)c2cc(-c3ccnc(N4CCOCC4)c3)cn2n1` [Example 63, N-[(1R)-1-[3-amino-5-(trifluoromethyl)phenyl]ethyl]-2-methyl-6-[2-(morpholin-4-yl)pyridin-4-yl]pyrrolo[2,1-f][1,2,4]triazin-4-amine], for which the Kd in assay [2] is at most 0.4 µM. This compound had an IC50 in assay [1] above 1 µM.

`C[C@@H](Nc1nccc2nc(C(=O)N3CC4(CN(CCF)C4)C3)cn12)c1cccc(C(F)F)c1F` [Example 92]: the Kd in assay [2] was at most 0.4 µM. The IC50 in assay [1] was below 1 µM.

Consider `Cc1nc(N[C@H](C)c2cc(N)cc(C(F)(F)F)c2)c2cc(CN3CCOCC3)cn2n1` [Example 34, N-[(1R)-1-[3-amino-5-(trifluoromethyl)phenyl]ethyl]-2-methyl-6-(morpholinomethyl)pyrrolo[2,1-f][1,2,4]triazin-4-amine], for which, in assay [2], the Kd is above 0.4 µM. The same compound yielded an IC50 in assay [1] above 1 µM.

The compound `Cc1cn2nc(C(=O)N3CC4CC(C3)N4C)cc2c(N[C@H](C)c2cc(N)cc(C(F)(F)F)c2)n1` [Example 80] registered an IC50 in assay [1] above 1 µM.

Take `C[C@@H](Nc1ncnc2c1cc(C1=CCNCC1)n2C)c1cc(N)cc(C(F)(F)F)c1` [Example 67]: the Kd in assay [2] was at most 0.4 µM.

Regarding `Cc1cn2nc(C(=O)N3CC(N4CCC4)C3)cc2c(N[C@H](C)c2cc(N)cc(C(F)(F)F)c2)n1` [Example 79], the IC50 in assay [1] is above 1 µM.

For the compound `Cc1cn2nc(C(=O)N3CCOCC3)cc2c(N[C@H](C)c2cc(N)cc(C(F)(F)F)c2)n1` [Example 58., 60.], the Kd in assay [2] is above 0.4 µM. The same compound displayed an IC50 in assay [1] above 1 µM.

Take `Cc1cn2nc(C(=O)N3CCN(C)CC3)cc2c(N[C@H](C)c2cc(N)cc(C(F)(F)F)c2)n1` [Example 59]: the Kd in assay [2] is at most 0.4 µM. In addition, in assay [1], the IC50 is above 1 µM.

For the compound `C[C@@H](Nc1ccnc2cc(C3=CCNCC3)nn12)c1cc(N)cc(C(F)(F)F)c1` [Example 52, N-[(1R)-1-[3-amino-5-(trifluoromethyl)phenyl]ethyl]-2-(1,2,3,6-tetrahydropyridin-4-yl)pyrazolo[1,5-a]pyrimidin-7-amine], the Kd in assay [2] is at most 0.4 µM. The IC50 in assay [1] was above 1 µM.

Regarding `COc1ncccc1-c1cc2c(N[C@H](C)c3cc(N)cc(C(F)(F)F)c3)nc(C)nn2c1` [Example 64, N-[(1R)-1-[3-amino-5-(trifluoromethyl)phenyl]ethyl]-6-(2-methoxypyridin-3-yl)-2-methylpyrrolo[2,1-f][1,2,4]triazin-4-amine], the Kd in assay [2] is above 0.4 µM. In addition, in assay [1], the IC50 was above 1 µM.

In the case of `COc1cc2c(N[C@H](C)c3cc(N)cc(C(F)(F)F)c3)ncnn2c1` [Example 44, N-[(1R)-1-[3-amino-5-(trifluoromethyl)phenyl]ethyl]-6-methoxy-pyrrolo[2,1-f][1,2,4]triazin-4-amine], the Kd in assay [2] was above 0.4 µM. Moreover, the IC50 in assay [1] is above 1 µM.

Consider `CC(=O)N1CCN(c2cc3c(N[C@H](C)c4cccc(C(F)(F)F)c4)ncnn3c2)CC1` [Example 45, 1-[4-[4-[[(1R)-1-[3-(trifluoromethyl)phenyl]ethyl]amino]pyrrolo[2,1-f][1,2,4]triazin-6-yl]piperazin-1-yl]ethenone], for which, in assay [2], the Kd was at most 0.4 µM. Besides, the IC50 in assay [1] is above 1 µM.

In assay [1], `C[C@@H](Nc1cccc2nc(C3=CCNCC3)nn12)c1cc(N)cc(C(F)(F)F)c1` [Example 55, N-[(1R)-1-[3-amino-5-(trifluoromethyl)phenyl]ethyl]-2-(1,2,3,6-tetrahydropyridin-4-yl)-[1,2,4]triazolo[1,5-a]pyridin-5-amine] came in with an IC50 above 1 µM.

`C[C@@H](Nc1nc(Cl)cc2nc(C(=O)N3CCOCC3)cn12)c1cccc(C(F)(F)CO)c1` [Example 86]: in assay [2], the Kd is at most 0.4 µM. This compound showed an IC50 in assay [1] below 1 µM.
